Laboratory results reported in ChEMBL document CHEMBL5380795, “Design, Synthesis, and Bioactivity Investigation of Cyclic Lipopeptide Antibiotics Containing Eight to Nine Amino Acids” (J Med Chem, 2023).
Values after ≈ are worked out from the molar mass of the structure shown.

Assays:
Escherichia coli [1] = assay: Antibacterial activity against Escherichia coli clinical isolate 19-2 assessed as inhibition of bacterial growth incubated for 18 to 24 hrs by broth microdilution method; format: functional; settings: time 18-24 hrs
Klebsiella pneumoniae [2] = assay: Antibacterial activity against carbapenem resistant Klebsiella pneumoniae clinical isolate 19-15 assessed as inhibition of bacterial growth incubated for 18 to 24 hrs by broth microdilution method; format: functional; settings: time 18-24 hrs
Escherichia coli [3] = assay: Antibacterial activity against Escherichia coli NCTC 13353 assessed as inhibition of bacterial growth incubated for 18 to 24 hrs by broth microdilution method; format: functional; settings: time 18-24 hrs
[4] = test system: Staphylococcus epidermidis; assay: Antibacterial activity against methicillin resistant Staphylococcus epidermidis clinical isolate 19-6 assessed as inhibition of bacterial growth incubated for 18 to 24 hrs by broth microdilution method; format: functional; settings: time 18-24 hrs
Acinetobacter baumannii [5] = assay: Antibacterial activity against oxacillinase-27 producing Acinetobacter baumannii NCTC 13304 assessed as inhibition of bacterial growth incubated for 18 to 24 hrs by broth microdilution method; format: functional; settings: time 18-24 hrs
Escherichia coli [6] = assay: Antibacterial activity against Escherichia coli ATCC BAA-2523 assessed as inhibition of bacterial growth incubated for 18 to 24 hrs by broth microdilution method; format: functional; settings: time 18-24 hrs
[7] = test system: Staphylococcus epidermidis; assay: Antibacterial activity against methicillin resistant Staphylococcus epidermidis clinical isolate 19-5 assessed as inhibition of bacterial growth incubated for 18 to 24 hrs by broth microdilution method; format: functional; settings: time 18-24 hrs
Pseudomonas aeruginosa [8] = assay: Antibacterial activity against Pseudomonas aeruginosa clinical isolate 19-1 assessed as inhibition of bacterial growth incubated for 18 to 24 hrs by broth microdilution method; format: functional; settings: time 18-24 hrs
Pseudomonas aeruginosa [9] = assay: Antibacterial activity against carbapenem resistant Pseudomonas aeruginosa clinical isolate 19-3 assessed as inhibition of bacterial growth incubated for 18 to 24 hrs by broth microdilution method; format: functional; settings: time 18-24 hrs
[10] = Cytotoxicity against human HK-2 cells assessed as inhibition of cell growth incubated for 72 hrs by CCK-8 assay; format: toxicity, cell-based
Klebsiella pneumoniae [11] = assay: Antibacterial activity against carbapenem resistant Klebsiella pneumoniae clinical isolate 19-17 assessed as inhibition of bacterial growth incubated for 18 to 24 hrs by broth microdilution method; format: functional; settings: time 18-24 hrs
Acinetobacter baumannii [12] = assay: Antibacterial activity against carbapenem resistant Acinetobacter baumannii clinical isolate 19-8 assessed as inhibition of bacterial growth incubated for 18 to 24 hrs by broth microdilution method; format: functional; settings: time 18-24 hrs
[13] = Selectivity index, ratio of IC50 for cytotoxicity against human HK-2 cells to MIC for antibacterial activity against Escherichia coli ATCC BAA-2523; format: toxicity, cell-based
Pseudomonas aeruginosa [14] = assay: Antibacterial activity against Pseudomonas aeruginosa ATCC 27853 assessed as inhibition of bacterial growth incubated for 18 to 24 hrs by broth microdilution method; format: functional; settings: time 18-24 hrs
Pseudomonas aeruginosa [15] = assay: Antibacterial activity against carbapenem resistant Pseudomonas aeruginosa clinical isolate 17-1 assessed as inhibition of bacterial growth incubated for 18 to 24 hrs by broth microdilution method; format: functional; settings: time 18-24 hrs
Staphylococcus aureus [16] = assay: Antibacterial activity against methicillin resistant Staphylococcus aureus ATCC 33591 assessed as inhibition of bacterial growth incubated for 18 to 24 hrs by broth microdilution method; format: functional; settings: time 18-24 hrs
Staphylococcus aureus [17] = assay: Antibacterial activity against Staphylococcus aureus ATCC 29213 assessed as inhibition of bacterial growth incubated for 18 to 24 hrs by broth microdilution method; format: functional; settings: time 18-24 hrs
Escherichia coli [18] = assay: Antibacterial activity against KPC producing Escherichia coli ATCC BAA-2340 assessed as inhibition of bacterial growth incubated for 18 to 24 hrs by broth microdilution method; format: functional; settings: time 18-24 hrs
Klebsiella pneumoniae [19] = assay: Antibacterial activity against KPC producing Klebsiella pneumoniae ATCC BAA-1705 assessed as inhibition of bacterial growth incubated for 18 to 24 hrs by broth microdilution method; format: functional; settings: time 18-24 hrs

| SMILES | MIC (Escherichia coli [1]) [µg/mL] | MIC (Klebsiella pneumoniae [2]) [µg/mL] | MIC (Escherichia coli [3]) [µg/mL] | MIC [4] [µg/mL] | MIC (Acinetobacter baumannii [5]) [µg/mL] | MIC (Escherichia coli [6]) [µg/mL] | MIC [7] [µg/mL] | MIC (Pseudomonas aeruginosa [8]) [µg/mL] | MIC (Pseudomonas aeruginosa [9]) [µg/mL] | IC50 at 72 h [10] [µg/mL] | MIC (Klebsiella pneumoniae [11]) [µg/mL] | MIC (Acinetobacter baumannii [12]) [µg/mL] | selectivity ratio [13] | MIC (Pseudomonas aeruginosa [14]) [µg/mL] | MIC (Pseudomonas aeruginosa [15]) [µg/mL] | MIC (Staphylococcus aureus [16]) [µg/mL] | MIC (Staphylococcus aureus [17]) [µg/mL] | MIC (Escherichia coli [18]) [µg/mL] | MIC (Klebsiella pneumoniae [19]) [µg/mL] |
| --- | --- | --- | --- | --- | --- | --- | --- | --- | --- | --- | --- | --- | --- | --- | --- | --- | --- | --- | --- |
| CCCCCCCCCC(=O)N[C@H](CCN)C(=O)N[C@H]1CCNC(=O)[C@H]([C@@H](C)O)NC(=O)[C@H](CCN)NC(=O)[C@H](CCN)NC(=O)[C@H](CC(C)C)NC(=O)[C@@H](Cc2ccccc2Cl)NC(=O)[C@H](CCN)NC1=O | 2 (≈ 1.9 µM) | 4 (≈ 3.81 µM) | 8 (≈ 7.61 µM) | 2 (≈ 1.9 µM) | 32 (≈ 30.5 µM) | 2 (≈ 1.9 µM) | 4 (≈ 3.81 µM) | 2 (≈ 1.9 µM) | 2 (≈ 1.9 µM) | 54.6 (≈ 52 µM) | 4 (≈ 3.81 µM) | 64 (≈ 60.9 µM) | 27.3 | 32 (≈ 30.5 µM) | 64 (≈ 60.9 µM) | > 64 | 64 (≈ 60.9 µM) | 2 (≈ 1.9 µM) | 2 (≈ 1.9 µM) |
| CCCCCCCCCC(=O)N[C@H](CCN)C(=O)N[C@H]1CCNC(=O)[C@H]([C@@H](C)O)NC(=O)[C@H](CCN)NC(=O)[C@H](CCN)NC(=O)[C@H](CC(C)C)NC(=O)[C@@H](Cc2ccc(N)cc2)NC(=O)[C@H](CCN)NC1=O | 64 (≈ 62.1 µM) | > 64 | > 64 | 32 (≈ 31 µM) | > 64 | 64 (≈ 62.1 µM) | 16 (≈ 15.5 µM) | > 64 | > 64 | 228 (≈ 221 µM) | > 64 | > 64 | 3.6 | > 64 | > 64 | > 64 | > 64 | 64 (≈ 62.1 µM) | > 64 |
| CCCCCCCCCC(=O)N[C@H](CCN)C(=O)N[C@H]1CCNC(=O)[C@H](Cc2ccccc2)NC(=O)[C@H](CCN)NC(=O)[C@H](CCN)NC(=O)[C@H](Cc2ccccc2)NC(=O)[C@@H](CC(C)C)NC(=O)[C@H](CCN)NC1=O | 4 (≈ 3.77 µM) | 8 (≈ 7.53 µM) | 8 (≈ 7.53 µM) | 1 (≈ 0.941 µM) | 16 (≈ 15.1 µM) | 8 (≈ 7.53 µM) | 1 (≈ 0.941 µM) | 4 (≈ 3.77 µM) | 4 (≈ 3.77 µM) | 43.1 (≈ 40.6 µM) | 8 (≈ 7.53 µM) | 16 (≈ 15.1 µM) | 5.4 | 8 (≈ 7.53 µM) | 8 (≈ 7.53 µM) | 16 (≈ 15.1 µM) | 8 (≈ 7.53 µM) | 8 (≈ 7.53 µM) | 1 (≈ 0.941 µM) |
| CCCCCCC[C@@H](O)CC(=O)N[C@H](CCN)C(=O)N[C@H]1CCNC(=O)[C@H]([C@@H](C)O)NC(=O)[C@H](CCN)NC(=O)[C@H](CCN)NC(=O)[C@H]([C@@H](C)O)NC(=O)[C@@H](CC(C)C)NC(=O)[C@H](CCN)NC1=O | 16 (≈ 16.2 µM) | 16 (≈ 16.2 µM) | 16 (≈ 16.2 µM) | > 64 | > 64 | 2 (≈ 2.03 µM) | > 64 | 0.5 (≈ 0.507 µM) | 0.5 (≈ 0.507 µM) | 411 (≈ 417 µM) | 64 (≈ 64.9 µM) | > 64 | 205 | 0.25 (≈ 0.253 µM) | 0.5 (≈ 0.507 µM) | > 64 | > 64 | 4 (≈ 4.06 µM) | 4 (≈ 4.06 µM) |
| CCCCCCCCCC(=O)N[C@H](CCN)C(=O)N[C@H]1CCNC(=O)[C@H]([C@@H](C)O)NC(=O)[C@H](CCN)NC(=O)[C@H](CCN)NC(=O)[C@H](CC(C)C)NC(=O)[C@@H](Cc2ccc(C)cc2)NC(=O)[C@H](CCN)NC1=O | 2 (≈ 1.94 µM) | 4 (≈ 3.88 µM) | 8 (≈ 7.76 µM) | 2 (≈ 1.94 µM) | 16 (≈ 15.5 µM) | 1 (≈ 0.971 µM) | 2 (≈ 1.94 µM) | 1 (≈ 0.971 µM) | 1 (≈ 0.971 µM) | 71.6 (≈ 69.5 µM) | 4 (≈ 3.88 µM) | 32 (≈ 31.1 µM) | 71.6 | 32 (≈ 31.1 µM) | 32 (≈ 31.1 µM) | > 64 | 32 (≈ 31.1 µM) | 1 (≈ 0.971 µM) | 2 (≈ 1.94 µM) |
